Test results from US20060084704A1, “Methods and compositions for enhancing degradation of nuclear receptor transcription factors and uses thereof” (priority 2004, published 2006).

Target: T1, AR (Homo sapiens, UniProt P10275, T878A)
T1 construct: LNCaP cells express an endogenous mutant AR that is found in prostate cancer patients; host or cells: LNCaP
T1 sequence (P10275 1-920 T878A): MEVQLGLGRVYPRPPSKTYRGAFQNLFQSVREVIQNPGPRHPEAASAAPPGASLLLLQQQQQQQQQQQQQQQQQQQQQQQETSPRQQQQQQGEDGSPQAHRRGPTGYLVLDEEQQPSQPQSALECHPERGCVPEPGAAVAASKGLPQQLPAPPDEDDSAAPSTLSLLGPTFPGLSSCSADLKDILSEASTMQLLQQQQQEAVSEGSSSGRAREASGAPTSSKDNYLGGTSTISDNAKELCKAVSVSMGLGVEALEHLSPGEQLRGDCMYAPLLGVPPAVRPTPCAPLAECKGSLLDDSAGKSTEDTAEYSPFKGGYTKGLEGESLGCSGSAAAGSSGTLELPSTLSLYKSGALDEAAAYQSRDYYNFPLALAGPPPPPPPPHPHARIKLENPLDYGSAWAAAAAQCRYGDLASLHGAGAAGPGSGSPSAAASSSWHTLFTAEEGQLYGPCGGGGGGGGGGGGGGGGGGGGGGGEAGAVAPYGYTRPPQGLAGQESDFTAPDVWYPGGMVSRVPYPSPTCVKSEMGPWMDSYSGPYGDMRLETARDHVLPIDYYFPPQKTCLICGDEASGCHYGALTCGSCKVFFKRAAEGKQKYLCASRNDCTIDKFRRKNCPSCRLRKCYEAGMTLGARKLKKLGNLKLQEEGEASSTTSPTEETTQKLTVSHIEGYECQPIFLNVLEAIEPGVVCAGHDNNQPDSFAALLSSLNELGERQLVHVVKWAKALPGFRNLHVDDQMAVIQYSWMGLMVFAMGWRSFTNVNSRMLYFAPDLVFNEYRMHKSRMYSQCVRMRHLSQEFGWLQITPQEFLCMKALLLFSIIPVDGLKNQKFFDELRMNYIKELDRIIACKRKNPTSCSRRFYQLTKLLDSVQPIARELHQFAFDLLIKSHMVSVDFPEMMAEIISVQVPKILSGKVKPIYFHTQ
Test: Western blot analysis of AR expression in JC9-treated LNCaP cells over 5 days
Format: cell-based
Excerpt: A Western blot method suitable for detecting degradation of the androgen receptor (AR) has been previously described (Su et al., 1999). Briefly, cells (for example, LNCap cells) are harvested either in 2× sodium dodecyl sulfate (SDS) loading buffer or in radioimmunoprecipitation assay (RIPA) lysis buffer (see “Antibodies: A Laboratory Manual”, E. Harlow and D. Lane, Cold Spring Harbor Laboratory, 1988) containing 10 micrograms/milliliter of benzamidine, 10 micrograms/milliliter of trypsin inhibitor, and 1 millimolar of phenylmethylsulfonyl fluoride (PMSF). Total protein (40 micrograms/sample, or as desired) from cell lysate is separated on a SDS-PAGE gel. […] The membrane is rinsed with PBST, and a suitable visualization procedure is used to detect the secondary antibody (for example, horseradish peroxidase can be detected with a colorimetric substrate or by a chemiluminescent substrate such as that provided by the enhanced chemiluminescence (ECL Plus) kit from Amersham). […] Quantification of the protein signals can be carried out by densitometry, using appropriate software (ImageJ software from the National Institutes of Health).
AR is the key factor in regulating prostate cancer cells' response to androgens. […] A color detection method was subsequently employed to examine AR and actin protein signals in the membranes, and the resultant protein signals were quantitated by densitometry. […]

COc1ccc(C=CC(=O)C=C(O)C=Cc2ccc(OC)c(OC)c2)cc1OC [JC9, 5-hydroxy-1,7-bis(3,4-dimethoxyphenyl)-1,4,6-heptatrien-3-one]
time at which AR reduction was first observed (5 μM JC9, continuous incubation): 2 days
AR level remaining (normalized AR signal, percentage of baseline Day 0) (5 μM JC9, end of 5-day incubation): ~10%
